Laboratory results from PubChem BioAssay (NCI).
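Where inhibition never reached the appropriate level, the endpoint shown equals the highest concentration tested. Otherwise, values were interpolated linearly from a five-concentration, 48-hour dose response in 96-well plates. Abbreviation: GI50, concentration required for 50% inhibition of growth. TGI marks complete inhibition of growth.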

Columns and labels:
Test in all cases: growth of human tumour cells (NCI), 48 h
UO-31 renal = test system: UO-31 renal
SNB-19 CNS = test system: SNB-19 CNS
OVCAR-4 ovarian = test system: OVCAR-4 ovarian
DU-145 prostate = test system: DU-145 prostate
OVCAR-5 ovarian = test system: OVCAR-5 ovarian
SK-OV-3 ovarian = test system: SK-OV-3 ovarian
UACC-257 melanoma = test system: UACC-257 melanoma
HCC-2998 colon = test system: HCC-2998 colon
NCI-H23 lung = test system: NCI-H23 lung
HOP-62 NSCLC = test system: HOP-62 NSCLC
SF-268 CNS = test system: SF-268 CNS
HOP-92 NSCLC = test system: HOP-92 NSCLC
NCI-H460 lung = test system: NCI-H460 lung
MDA-MB-231 breast = test system: MDA-MB-231 breast
SK-MEL-5 melanoma = test system: SK-MEL-5 melanoma
COLO 205 colon = test system: COLO 205 colon
RXF 393 renal = test system: RXF 393 renal
HCT-116 colon = test system: HCT-116 colon
HT29 colon = test system: HT29 colon
HL-60(TB) leukemia = test system: HL-60(TB) leukemia
NCI-H522 lung = test system: NCI-H522 lung
K-562 leukemia = test system: K-562 leukemia
LOX IMVI melanoma = test system: LOX IMVI melanoma
MCF7 breast = test system: MCF7 breast
786-0 renal = test system: 786-0 renal
MDA-MB-435 = test system: MDA-MB-435
TK-10 renal = test system: TK-10 renal

`Cc1cc(C(F)(F)F)ccc1C(=O)Nc1sc2c(c1C#N)CCC(=O)C2` showed a GI50 (UO-31 renal) of 1.12 µM, a TGI (UO-31 renal) of 2.38 µM and a GI50 (SNB-19 CNS) of 3.91 µM. For the same molecule, the TGI (SNB-19 CNS) was > 100 µM, the GI50 (OVCAR-4 ovarian) was 1.25 µM and the TGI (OVCAR-4 ovarian) was 2.94 µM. The GI50 (DU-145 prostate) was 3.57 µM, the TGI (DU-145 prostate) was > 100 µM and the GI50 (OVCAR-5 ovarian) was 2.02 µM. For the same molecule, the TGI (OVCAR-5 ovarian) was 5.94 µM, the GI50 (SK-OV-3 ovarian) was 9.21 µM and the TGI (SK-OV-3 ovarian) was 28.5 µM. The GI50 (UACC-257 melanoma) was 1.9 µM, the TGI (UACC-257 melanoma) was 5.28 µM and the GI50 (HCC-2998 colon) was 2.73 µM. It also gave a TGI (HCC-2998 colon) of 9.21 µM, a GI50 (NCI-H23 lung) of 1.71 µM and a TGI (NCI-H23 lung) of 6.5 µM. The GI50 (HOP-62 NSCLC) was 3.1 µM, the TGI (HOP-62 NSCLC) was > 100 µM and the GI50 (SF-268 CNS) was 2.83 µM. It also gave a TGI (SF-268 CNS) of 20.5 µM, a GI50 (HOP-92 NSCLC) of 0.957 µM and a TGI (HOP-92 NSCLC) of 2.62 µM. It also gave a GI50 (NCI-H460 lung) of 3.16 µM, a TGI (NCI-H460 lung) of 69.6 µM and a GI50 (MDA-MB-231 breast) of 1.56 µM. It also gave a TGI (MDA-MB-231 breast) of 3.39 µM, a GI50 (SK-MEL-5 melanoma) of 1.54 µM and a TGI (SK-MEL-5 melanoma) of 2.96 µM. The GI50 (COLO 205 colon) was 2.03 µM, the TGI (COLO 205 colon) was 3.68 µM and the GI50 (RXF 393 renal) was 0.659 µM. The TGI (RXF 393 renal) was 3.09 µM, the GI50 (HCT-116 colon) was 0.411 µM and the TGI (HCT-116 colon) was 10.3 µM. The GI50 (HT29 colon) was 0.973 µM, the TGI (HT29 colon) was 3.43 µM and the GI50 (HL-60(TB) leukemia) was 0.448 µM. It also gave a TGI (HL-60(TB) leukemia) of 13.7 µM, a GI50 (NCI-H522 lung) of 0.288 µM and a TGI (NCI-H522 lung) of 1.01 µM. The GI50 (K-562 leukemia) was 0.24 µM, the TGI (K-562 leukemia) was > 100 µM and the GI50 (LOX IMVI melanoma) was 1.06 µM. For the same molecule, the TGI (LOX IMVI melanoma) was 3.73 µM, the GI50 (MCF7 breast) was 1.78 µM and the TGI (MCF7 breast) was 11.3 µM. For the same molecule, the GI50 (786-0 renal) was 3.51 µM, the TGI (786-0 renal) was > 100 µM and the GI50 (MDA-MB-435) was 1.88 µM. For the same molecule, the TGI (MDA-MB-435) was 4.34 µM, the GI50 (TK-10 renal) was 1.59 µM and the TGI (TK-10 renal) was 24.9 µM.
